Test results published in publication PMC10008561 (Nature Communications, 2023).
Values joined by “and” are separate entries in the source; they are usually repeats but may differ in a detail not shown here. Equal entries are not always repeated. Where two headings read alike, the source gives them in different places.

Legend:
KOR [1] = test system: KOR; design: method as in Cao et al., ACS Chem Neuro 2020; settings: ref Cao et al., ACS Chem Neuro 2020; cited from earlier work
DOR = DOR (Homo sapiens, UniProt P41143); test: Radioligand competition binding (3H-Diprenorphine)
KOR [2] = settings: ERK activation versus p38 activation; cited from earlier work
human KOR [3] = target: T1, human KOR (Homo sapiens, UniProt P41145, W287A); test: cell-based; settings: HTLA
T1 construct: expressed in transfected cells; host or cells: HEK 293T (ATCC, CRL-3216)

human KOR [4] = target: T2, human KOR (Homo sapiens, UniProt P41145, K227A); test: cell-based; settings: HTLA
T2 construct: expressed in transfected cells; host or cells: HEK 293T (ATCC, CRL-3216)

human KOR [5] = target: T3, human KOR (Homo sapiens, UniProt P41145, W124L); test: cell-based; settings: HTLA
T3 construct: expressed in transfected cells; host or cells: HEK 293T (ATCC, CRL-3216)

human KOR [6] = target: T4, human KOR (Homo sapiens, UniProt P41145, F114L); test: cell-based; settings: HTLA
T4 construct: expressed in transfected cells; host or cells: HEK 293T (ATCC, CRL-3216)

human KOR [7] = target: T5, human KOR (Homo sapiens, UniProt P41145, Q115N); test: cell-based; settings: HTLA
T5 construct: expressed in transfected cells; host or cells: HEK 293T (ATCC, CRL-3216)

human KOR [8] = target: T6, human KOR (Homo sapiens, UniProt P41145, V134A); test: cell-based; settings: HTLA
T6 construct: expressed in transfected cells; host or cells: HEK 293T (ATCC, CRL-3216)

human KOR [9] = target: T7, human KOR (Homo sapiens, UniProt P41145, G319L); test: cell-based; settings: HTLA
T7 construct: expressed in transfected cells; host or cells: HEK 293T (ATCC, CRL-3216)

KOR Q115N = KOR Q115N (Homo sapiens, UniProt P41145, Q115N); test: cell-based; design: expressed in transfected cells; host or cells: HEK 293T (ATCC, CRL-3216); settings: read-out: cAMP response (Figure S4C), KOR Q115N, Log [Drug], replicate values
human KOR (Gi2) [10] = target: T8, human KOR (Gi2) (Homo sapiens, UniProt P41145, L253A); test: cell-based
T8 construct: expressed in transfected cells; host or cells: HEK293T

human KOR (Gi2) [11] = target: T9, human KOR (Gi2) (Homo sapiens, UniProt P41145, T94V); test: cell-based
T9 construct: expressed in transfected cells; host or cells: HEK293T

human KOR (Gi2) [12] = target: T10, human KOR (Gi2) (Homo sapiens, UniProt P41145, N322A); test: cell-based
T10 construct: expressed in transfected cells; host or cells: HEK293T

human KOR (Gi2) [13] = target: T11, human KOR (Gi2) (Homo sapiens, UniProt P41145, K200A); test: cell-based
T11 construct: expressed in transfected cells; host or cells: HEK293T

human KOR (Gi2) [14] = target: T12, human KOR (Gi2) (Homo sapiens, UniProt P41145, E297A); test: cell-based
T12 construct: expressed in transfected cells; host or cells: HEK293T

human KOR (Gi2) [15] = target: T13, human KOR (Gi2) (Homo sapiens, UniProt P41145, D334A); test: cell-based
T13 construct: expressed in transfected cells; host or cells: HEK293T

human KOR (Gi2) [16] = target: T14, human KOR (Gi2) (Homo sapiens, UniProt P41145, G319L); test: cell-based
T14 construct: expressed in transfected cells; host or cells: HEK293T

human KOR (Gi2) [17] = target: T15, human KOR (Gi2) (Homo sapiens, UniProt P41145, D155A); test: cell-based
T15 construct: expressed in transfected cells; host or cells: HEK293T

human KOR (Gi2) [18] = target: T16, human KOR (Gi2) (Homo sapiens, UniProt P41145, F283A); test: cell-based
T16 construct: expressed in transfected cells; host or cells: HEK293T

human KOR (Gi2) [19] = target: T17, human KOR (Gi2) (Homo sapiens, UniProt P41145, R170A); test: cell-based; settings: HEK-293T
T17 construct: expressed in transfected cells; host or cells: HEK293T

human KOR (Gi2) [20] = target: T18, human KOR (Gi2) (Homo sapiens, UniProt P41145, Y139L); test: cell-based
T18 construct: expressed in transfected cells; host or cells: HEK293T

human KOR (Gi2) [21] = target: T19, human KOR (Gi2) (Homo sapiens, UniProt P41145, F114L); test: cell-based
T19 construct: expressed in transfected cells; host or cells: HEK293T

human KOR (Gi2) [22] = target: T20, human KOR (Gi2) (Homo sapiens, UniProt P41145, D105A); test: cell-based; settings: HEK-293T
T20 construct: expressed in transfected cells; host or cells: HEK293T

human KOR (Gi2) [23] = target: T21, human KOR (Gi2) (Homo sapiens, UniProt P41145, Y320L); test: cell-based
T21 construct: expressed in transfected cells; host or cells: HEK293T

human KOR (Gi2) [24] = target: T22, human KOR (Gi2) (Homo sapiens, UniProt P41145, D266A); test: cell-based
T22 construct: expressed in transfected cells; host or cells: HEK293T

human KOR (Gi2) [25] = target: T23, human KOR (Gi2) (Homo sapiens, UniProt P41145, R271A); test: cell-based
T23 construct: expressed in transfected cells; host or cells: HEK293T

human KOR (Gi2) [26] = target: T24, human KOR (Gi2) (Homo sapiens, UniProt P41145, K227A); test: cell-based
T24 construct: expressed in transfected cells; host or cells: HEK293T

human KOR (Gi2) [27] = target: T25, human KOR (Gi2) (Homo sapiens, UniProt P41145, Q115N); test: cell-based
T25 construct: expressed in transfected cells; host or cells: HEK293T

human KOR (Gi2) [28] = target: T26, human KOR (Gi2) (Homo sapiens, UniProt P41145, N326A); test: cell-based
T26 construct: expressed in transfected cells; host or cells: HEK293T
T26 sequence (P41145 whole entry N326A): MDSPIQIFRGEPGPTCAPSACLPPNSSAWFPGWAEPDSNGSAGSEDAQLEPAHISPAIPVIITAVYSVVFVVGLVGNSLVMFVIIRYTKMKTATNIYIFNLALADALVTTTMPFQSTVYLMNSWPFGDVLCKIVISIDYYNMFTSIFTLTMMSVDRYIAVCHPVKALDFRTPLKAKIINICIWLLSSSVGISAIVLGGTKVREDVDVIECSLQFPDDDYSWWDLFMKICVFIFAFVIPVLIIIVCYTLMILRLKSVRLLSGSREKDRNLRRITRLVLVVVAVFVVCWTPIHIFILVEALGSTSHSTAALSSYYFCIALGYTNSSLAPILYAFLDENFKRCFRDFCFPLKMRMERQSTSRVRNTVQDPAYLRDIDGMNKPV

T4 sequence (P41145 whole entry F114L): as the sequence (P41145 whole entry N326A) above, with F114L, A326N counted along it
Chain of KOR Q115N (P41145 whole entry Q115N): as the sequence (P41145 whole entry N326A) above, with Q115N, A326N counted along it
T8 sequence (P41145 whole entry L253A): as the sequence (P41145 whole entry N326A) above, with L253A, A326N counted along it
T15 sequence (P41145 whole entry D155A): as the sequence (P41145 whole entry N326A) above, with D155A, A326N counted along it
T3 sequence (P41145 whole entry W124L): as the sequence (P41145 whole entry N326A) above, with W124L, A326N counted along it
T6 sequence (P41145 whole entry V134A): as the sequence (P41145 whole entry N326A) above, with V134A, A326N counted along it
T12 sequence (P41145 whole entry E297A): as the sequence (P41145 whole entry N326A) above, with E297A, A326N counted along it
T11 sequence (P41145 whole entry K200A): as the sequence (P41145 whole entry N326A) above, with K200A, A326N counted along it
T14 sequence (P41145 whole entry G319L): as the sequence (P41145 whole entry N326A) above, with G319L, A326N counted along it
T7 sequence (P41145 whole entry G319L): as the sequence (P41145 whole entry N326A) above, with G319L, A326N counted along it
T10 sequence (P41145 whole entry N322A): as the sequence (P41145 whole entry N326A) above, with N322A, A326N counted along it
T19 sequence (P41145 whole entry F114L): as the sequence (P41145 whole entry N326A) above, with F114L, A326N counted along it
T23 sequence (P41145 whole entry R271A): as the sequence (P41145 whole entry N326A) above, with R271A, A326N counted along it
T16 sequence (P41145 whole entry F283A): as the sequence (P41145 whole entry N326A) above, with F283A, A326N counted along it
T25 sequence (P41145 whole entry Q115N): as the sequence (P41145 whole entry N326A) above, with Q115N, A326N counted along it
T24 sequence (P41145 whole entry K227A): as the sequence (P41145 whole entry N326A) above, with K227A, A326N counted along it
T22 sequence (P41145 whole entry D266A): as the sequence (P41145 whole entry N326A) above, with D266A, A326N counted along it
T13 sequence (P41145 whole entry D334A): as the sequence (P41145 whole entry N326A) above, with A326N, D334A counted along it
T9 sequence (P41145 whole entry T94V): as the sequence (P41145 whole entry N326A) above, with T94V, A326N counted along it
T21 sequence (P41145 whole entry Y320L): as the sequence (P41145 whole entry N326A) above, with Y320L, A326N counted along it
T17 sequence (P41145 whole entry R170A): as the sequence (P41145 whole entry N326A) above, with R170A, A326N counted along it
Chain of DOR (P41143 whole entry): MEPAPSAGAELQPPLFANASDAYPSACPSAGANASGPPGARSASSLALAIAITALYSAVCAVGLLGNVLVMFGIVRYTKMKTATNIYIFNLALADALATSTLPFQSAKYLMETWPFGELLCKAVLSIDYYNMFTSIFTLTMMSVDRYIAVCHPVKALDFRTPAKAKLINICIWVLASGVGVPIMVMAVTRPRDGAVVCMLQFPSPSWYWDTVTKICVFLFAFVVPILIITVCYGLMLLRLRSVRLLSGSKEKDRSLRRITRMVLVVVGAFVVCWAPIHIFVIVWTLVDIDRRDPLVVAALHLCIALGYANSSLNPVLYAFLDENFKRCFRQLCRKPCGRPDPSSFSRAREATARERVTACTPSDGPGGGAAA
T1 sequence (P41145 whole entry W287A): as the sequence (P41145 whole entry N326A) above, with W287A, A326N counted along it
T5 sequence (P41145 whole entry Q115N): as the sequence (P41145 whole entry N326A) above, with Q115N, A326N counted along it
T2 sequence (P41145 whole entry K227A): as the sequence (P41145 whole entry N326A) above, with K227A, A326N counted along it
T18 sequence (P41145 whole entry Y139L): as the sequence (P41145 whole entry N326A) above, with Y139L, A326N counted along it
T20 sequence (P41145 whole entry D105A): as the sequence (P41145 whole entry N326A) above, with D105A, A326N counted along it

Compound: CN(C(=O)/C=C/c1ccoc1)[C@@H]1CC[C@@]2(O)[C@H]3Cc4ccc(O)c5c4[C@@]2(CCN3CC2CC2)[C@H]1O5 [Nalfurafine, nalfurafine]
- bias factor toward G protein signaling (KOR [1]): 4.5
- Ki (DOR): 427 pM
- bias factor toward G protein signaling (KOR [2]): 200
- Emax (human KOR [3]): 85 ± 7%
- Emax (human KOR [4]): 89 ± 3%
- Emax (human KOR [5]): 26 ± 4%
- activation at 1 µM (human KOR [5]; read-out: Tango response): 19.6%
- activation at […] (human KOR [5]; read-out: Tango response): 21% and 25.5%
- Emax (human KOR [6]): 17 ± 3%
- activation at 1 µM (human KOR [6]; read-out: Tango response): 16.2%
- activation at 10 µM (human KOR [6]; read-out: Tango response): 15.9%
- activation at […] (human KOR [6]; read-out: Tango response): 30.3%
- Emax (human KOR [7]): 98 ± 3%
- Emax (human KOR [8]): 76 ± 6%
- activation at 10 µM (human KOR [8]; read-out: Tango response): 71.1%
- activation at […] (human KOR [8]; read-out: Tango response): 50.8% and 73.3%
- Emax (human KOR [9]): 2.6 ± 1.2%
- activation at 1 µM (human KOR [9]; read-out: Tango response): 4.03%
- activation at 1 µM (KOR Q115N; M -6): 99.3%
- activation at […] (KOR Q115N; M -6.5): 94.1%
- activation at 0.1 µM (KOR Q115N; M -7): 101%
- activation at […] (KOR Q115N; M -7.5): 96.7%
- activation at 0.01 µM (KOR Q115N; M -8): 100%
- activation at […] (KOR Q115N; M -8.5): 91.3%
- activation at 0.001 µM (KOR Q115N; M -9): 89.3%
- activation at […] (KOR Q115N; M -9.5): 82.2%
- activation at 0.0001 µM (KOR Q115N; M -10): 67.6%
- activation at 10 pM (KOR Q115N; M -11): 7.51%
- FC vs wild type (human KOR (Gi2) [10]): 87 and 100
- Emax (human KOR (Gi2) [10]; HEK-293T): 105%
- FC vs wild type (human KOR (Gi2) [11]): 2
- Emax (human KOR (Gi2) [11]; HEK-293T): 95.8%
- FC vs wild type (human KOR (Gi2) [12]): 178
- Emax (human KOR (Gi2) [12]; HEK-293T): 77.2%
- FC vs wild type (human KOR (Gi2) [13]): 2
- Emax (human KOR (Gi2) [13]; HEK-293T): 104%
- FC vs wild type (human KOR (Gi2) [14]): 2
- Emax (human KOR (Gi2) [14]; HEK-293T): 106%
- FC vs wild type (human KOR (Gi2) [15]): 269
- Emax (human KOR (Gi2) [15]; HEK-293T): 86.1%
- FC vs wild type (human KOR (Gi2) [16]): 17
- Emax (human KOR (Gi2) [16]; HEK-293T): 116%
- FC vs wild type (human KOR (Gi2) [17]): 20 and < 10
- Emax (human KOR (Gi2) [17]; HEK-293T): 82%
- FC vs wild type (human KOR (Gi2) [18]): 7
- Emax (human KOR (Gi2) [18]; HEK-293T): 79%
- Emax (human KOR (Gi2) [19]): 57.6%
- FC vs wild type (human KOR (Gi2) [20]): 1
- FC vs wild type (human KOR (Gi2) [21]): 18
- Emax (human KOR (Gi2) [21]; HEK-293T): 56.9%
- Emax (human KOR (Gi2) [22]): 96.1%
- FC vs wild type (human KOR (Gi2) [23]): 186
- Emax (human KOR (Gi2) [23]; HEK-293T): 89.3%
- FC vs wild type (human KOR (Gi2) [24]): 110
- Emax (human KOR (Gi2) [24]; HEK-293T): 107%
- FC vs wild type (human KOR (Gi2) [25]): 112
- Emax (human KOR (Gi2) [25]; HEK-293T): 106%
- FC vs wild type (human KOR (Gi2) [26]): 1
- Emax (human KOR (Gi2) [26]; HEK-293T): 101%
- FC vs wild type (human KOR (Gi2) [27]): 24
- Emax (human KOR (Gi2) [27]; HEK-293T): 60%
- FC vs wild type (human KOR (Gi2) [28]): 3
- Emax (human KOR (Gi2) [28]; HEK-293T): 101%
